Series [1] concerns Docetaxel-resistant DU145 cell. Briefly: Enhancement of docetaxel-induced anti-metabolic activity against human Docetaxel-resistant DU145 cell assessed as reduction in metabolic activity at 10 uM measured after 72 hrs by MTT assay. Type of series: functional, cell-based.
For series [2], the system named is K562-r. Briefly: Inhibition of STAT5 phosphorylation in human K562-r cells at 4 uM measured after 72 hrs by Western blotting based immunoassay. Type of series: cell-based.
The subject of series [3] is K-562R. Briefly: Antitumor activity against human K562-r cells xenografted in female NOD/SCID mouse model assessed as tumor growth inhibition at 10 mg/kg, po administered once daily for 30 days. The format is functional, organism-based. As to conditions: time 30.0 day.
The subject of series [4] is A2780/Taxol. Briefly: Inhibition of side population phenotype in human Paclitaxel-resistant A2780 cells expressing ABCB1 at 10 uM incubated for 90 mins by DCV staining based flow cytometric analysis. The format is functional, cell-based.
The test system of series [5] is PBMC. Briefly: Effect on colony formation in human PBMC derived from healthy donors at 10 uM measured after 2 weeks in presence of imatinib by inverted microscopic analysis. Type of series: functional, cell-based.
The test system of series [6] is MCF7. The series is described as follows: Inhibition of STAT5 phosphorylation in human MCF7 cells at 10 uM incubated for 72 hrs by Western blotting based immunoassay. Type of series: cell-based.
Series [7] deals with A549. Briefly: Inhibition of STAT5 phosphorylation in human A549 cells at 10 uM incubated for 72 hrs by Western blotting based immunoassay. Type of series: cell-based.
The subject of series [8] is A549. Briefly: Inhibition of side population phenotype in human A549 cells expressing ABCC1 at 10 uM incubated for 90 mins by DCV staining based flow cytometric analysis. The format is functional, cell-based.
Series [9] can be described thus: (§1) Inhibition of side population phenotype in human K562-r cells at 10 uM incubated for 90 mins by DCV staining based flow cytometric analysis relative to control. The format is functional. As to conditions: K-562R.
Series [10] deals with K-562R. Briefly: Effect on ABCB1 protein expression in human K562-r cells at 4 uM incubated for 72 hrs by Western blotting based immunoassay. The format is functional, cell-based.
The subject of series [11] is A2780/Taxol. Briefly: Sensitization of paclitaxel-induced cytotoxicity against human Paclitaxel-resistant A2780 cells assessed as reduction in metabolic activity at 10 uM measured after 72 hrs by MTT assay. Type of series: functional, cell-based.
Series [12] concerns Docetaxel-resistant PC-3 cell. Briefly: Enhancement of docetaxel-induced anti-metabolic activity against human Docetaxel-resistant PC-3 cell assessed as reduction in metabolic activity at 10 uM measured after 72 hrs by MTT assay. The format is functional, cell-based.
Series [13] has as its system A2780/Taxol. The series is described as follows: Effect on STAT5 protein expression in human Paclitaxel-resistant A2780 cells expressing ABCB1 at 10 uM incubated for 72 hrs by Western blotting based immunoassay. The format is functional, cell-based.
Series [14] concerns PBMC. The series is described as follows: Inhibition of colony formation in human PBMC derived from TKI naive CML patients assessed as reduction in number of colonies at 1 uM incubated for 14 days in presence of imatinib by inverted microscopic analysis. Particulars: time 14.0 day. The format is functional, cell-based.
Series [15] in a line: Toxicity in female NOD/SCID mouse xenografted with human K562-r cells assessed as body weight loss at 10 mg/kg, po administered once daily for 30 days. The format is organism-based. As to conditions: in vivo, 720 h, time 30 day.
The test system of series [16] is K562-r. Briefly: Effect on STAT5 phosphorylation in human K562-r cells at 4 uM measured after 6 hrs by Western blotting based immunoassay. Type of series: cell-based.
Series [17] deals with PBMC. The series is described as follows: Effect on colony formation in human PBMC derived from healthy donors at 10 uM measured after 2 weeks by inverted microscopic analysis. The format is functional, cell-based.
Series [18] concerns Docetaxel-resistant DU145 cell. Briefly: Inhibition of side population phenotype in human Docetaxel-resistant DU145 cell expressing ABCB1 at 10 uM incubated for 90 mins by DCV staining based flow cytometric analysis. Type of series: functional.
The test system of series [19] is K562-r. The series is described as follows: Inhibition of STAT5 phosphorylation in human K562-r cells at 4 uM measured after 6 hrs in presence of imatinib by Western blotting based immunoassay. Type of series: cell-based.
The next series deals with COS-7. Briefly: Cytotoxicity against African green monkey COS-7 cells assessed as reduction in metabolic activity at 10 uM incubated for 72 hrs by MTT assay. Type of series: toxicity, cell-based. Particulars: chlorocebus aethiops, cos-7, 72 h.
In series [20] the test system is K-562R. The series is described as follows: Restoration of imatinib accumulation in human K562-r cells at 10 uM preincubated with compound for 1 hrs followed by imatinib addition and measured after 2 hrs by UHPLC-SIM-MS analysis. Particulars: time 3.0 hrs. The format is functional, cell-based.
Series [21] has as its system A549. Briefly: Effect on STAT5 protein expression in human A549 cells at 10 uM incubated for 72 hrs by Western blotting based immunoassay. The format is functional, cell-based.
Series [22] deals with K-562R. The series is described as follows: Antitumor activity against human K562-r cells xenografted in female NOD/SCID mouse model assessed as reduction in tumor volume at 10 mg/kg, po co-administered with imatinib once daily and measured after 15 to 26 days. Type of series: functional, organism-based. As to conditions: time 15-26 day.
In series [23] the test system is Docetaxel-resistant PC-3 cell. The series is described as follows: Inhibition of side population phenotype in human Docetaxel-resistant PC-3 cell expressing ABCB1 at 10 uM incubated for 90 mins by DCV staining based flow cytometric analysis. Type of series: functional.
For series [24], the system named is Paclitaxel-resistant IGROV-1 cell. The series is described as follows: Inhibition of side population phenotype in human Paclitaxel-resistant IGROV-1 cells expressing ABCB1 at 10 uM incubated for 90 mins by DCV staining based flow cytometric analysis. Type of series: functional.
For series [25], the system named is Paclitaxel-resistant A2780. Briefly: Inhibition of STAT5 phosphorylation in human Paclitaxel-resistant A2780 cells expressing ABCB1 at 10 uM incubated for 72 hrs by Western blotting based immunoassay. The format is cell-based.
For series [26], the system named is Paclitaxel-resistant IGROV-1 cell. The series is described as follows: Inhibition of STAT5 phosphorylation in human Paclitaxel-resistant IGROV-1 cells expressing ABCB1 at 10 uM incubated for 72 hrs by Western blotting based immunoassay.
The test system of series [27] is K-562R. Briefly: Antitumor activity against human K562-r cells xenografted in female NOD/SCID mouse model assessed as reduction in tumor volume by measuring treatment to control ratio at 10 mg/kg, po co-administered with imatinib once daily and measured after 33 days relative to control. Type of series: functional. Particulars: time 33 day.
The subject of series [28] is K-562R. The series is described as follows: Antitumor activity against human K562-r cells xenografted in female NOD/SCID mouse model assessed as tumor growth inhibition at 10 mg/kg, po co-administered with imatinib once daily for 30 days. The format is functional, organism-based. Particulars: time 30.0 day.
The nature of series [29]: Toxicity in female NOD/SCID mouse xenografted with human K562-r cells assessed as body weight loss at 10 mg/kg, po co-administered with imatinib once daily for 30 days. Type of series: organism-based. Particulars: in vivo, 720 h, time 30 day.
In series [30] the test system is MCF7. Briefly: Inhibition of side population phenotype in human MCF7 cells expressing ABCG2 at 10 uM incubated for 90 mins by DCV staining based flow cytometric analysis. Type of series: functional, cell-based.
The test system of series [31] is MCF7. Briefly: Effect on STAT5 protein expression in human MCF7 cells at 10 uM incubated for 72 hrs by Western blotting based immunoassay. The format is functional, cell-based.
Series [32] relates to K-562R. Briefly: Cytotoxicity against human K562-r cells assessed as reduction in metabolic activity at 10 uM incubated for 72 hrs by MTT assay. Type of series: functional, cell-based.
The nature of series [33]: Intrinsic clearance in rat hepatocytes measured per 10^6 cells. The format is ADME, cell-based, Hepatocyte. Particulars: read-out: CLH.
For series [34], the system named is K-562R. Described as §1. Type of series: functional.
Series [35] concerns Paclitaxel-resistant IGROV-1 cell. Briefly: Downregulation of STAT5 protein expression in human Paclitaxel-resistant IGROV-1 cells expressing ABCB1 at 10 uM incubated for 72 hrs by Western blotting based immunoassay. Type of series: functional.
Series [36] relates to K-562R. The series is described as follows: Sensitization of imatinib-induced cytotoxicity against human K562-r cells assessed as reduction in metabolic activity at 0.5 to 10 uM measured after 72 hrs by MTT assay. The format is functional, cell-based. As to conditions: dose 0.5-10 µM.
Series [37] is described as follows: Permeability of compound. As to conditions: not told; read-out: permeability. Type of series: ADME.
Series [38] can be described thus: Aqueous solubility of compound measured after 48 hrs by HPLC analysis. The format is physicochemical. Particulars: buffer.
The test system of series [39] is K-562R. The series is described as follows: Enhancement of imatinib-induced anti-metabolic activity in human K562-r cells at 0.5 to 8 uM measured after 72 hrs by MTT assay relative to control. The format is functional. As to conditions: dose 0.5-8 µM.
The subject of series [40] is K-562R. Briefly: Sensitization of imatinib-induced cytotoxicity against human K562-r cells assessed as cell viability at 10 uM measured after 72 hrs by MTT assay relative to control. The format is functional. Particulars: read-out: Activity.
For series [41], the system named is Paclitaxel-resistant IGROV-1 cell. Briefly: Enhancement of paclitaxel-induced anti-metabolic activity in human Paclitaxel-resistant IGROV-1 cells assessed as reduction in metabolic activity upto 300 nM measured after 72 hrs by MTT assay. Type of series: functional, cell-based.
Series [42] deals with K-562R. The series is described as follows: Antitumor activity against human K562-r cells xenografted in female NOD/SCID mouse model assessed as tumor growth inhibition at 50 mg/kg, po administered once daily for 30 days. Type of series: functional, organism-based. Particulars: time 30.0 day.
Series [43] can be described thus: Toxicity in female NOD/SCID mouse xenografted with human K562-r cells assessed as body weight loss at 50 mg/kg, po administered once daily for 30 days. As to conditions: in vivo, 720 h, time 30 day. The format is organism-based.

In brackets after ≈: the same amount, converted by molar mass. Activity calls are given as the source filed them. The calls are words filed in the database; no cut-off is given here.

With `CCCc1nc2c(C)cc(-c3nc4ccccc4n3C)cc2n1Cc1ccc(-c2ccccc2C(N)=O)cc1`, the outcome (in [1]; in the series on K-562R [3]; with A2780/Taxol [11]; in series [12]; in the series on K-562R [20]; in the series on K-562R [22]) was Active. Besides, the inhibition entry in the series with K562-r [2] is reported as “Active; Lesser Effect Observed”. For the same molecule, the inhibition entry (in the series with A2780/Taxol [4]; in the series on MCF7 [6]; in the series with A549 [7]; with A549 [8]; in the series on PBMC [14]; in [18]) was “Active” each time. The inhibition result (with K562-r [19]; in [23]; in series [24]; in series [25]; in series [26]; in the series with MCF7 [30]) was “Active” throughout. The result in the series with PBMC [5], with K-562R [10], in the series with A2780/Taxol [13], in the series on K562-r [16], with PBMC [17] and in the series on A549 [21] was inactive. Also, the result in the series on MCF7 [31] and in the series on K-562R [32] was inactive. Testing at 10 µM in series [9] gave an inhibition of 100%. The Activity entry is “Non-toxic” in series [15], “Non-toxic” in the series on COS-7, “Active; Strongest Inhibition Observed” in the series on K-562R [28] and “Non-toxic” in series [29]. The T/C with K-562R [27] worked out at 36%.
For `CCCc1nc2c(C)cc(-c3nc4ccccc4n3C)cc2n1Cc1ccc(-c2ccccc2C(=O)O)cc1`, the result (in series [1]; in the series with PBMC [5]; in the series with K-562R [10]; in the series on A2780/Taxol [13]; with K562-r [16]; in the series on PBMC [17]) was inactive. Moreover, the result with A549 [21], in the series on MCF7 [31] and with K-562R [32] was inactive. Further, the inhibition result with K562-r [2] was “Active; Lesser Effect Observed”; in the series with A2780/Taxol [4], “Active; Modest Effect Observed”; in series [18], “Active; Modest Effect Observed”; in series [24], “Active; Modest Effect Observed”. Also, the hepatocyte CLint in series [33] is 23 µL/min/1e6 cells. The inhibition result (in the series with MCF7 [6]; with A549 [7]; in the series on A549 [8]; with K562-r [19]; in series [25]; in series [26]) was “Active” each time. Besides, the inhibition result in the series on MCF7 [30] was “Active”. The inhibition entry in the series with K-562R [34] and with PBMC [14] was “inactive” in each case. For the same molecule, the outcome (with A2780/Taxol [11]; in series [35]; in series [41]) was Active. In addition, the Activity entry in [12] was “Active; Marginal Activity Observed”; with K-562R [36], “Active; Marginal Enhancement Of Imatinib Activity Observed”; in the series with K-562R [39] it was <50%; with COS-7 it was “Non-toxic”. Moreover, the Papp in series [37] came to 29 ×10⁻⁶ cm/s. The solubility at 48 h in [38] was 19.2 µM (≈ 9.88 µg/mL). Besides, the viability at 10 µM in the series with K-562R [40] is 34%.
With `Cc1ccc(NC(=O)c2ccc(CN3CCN(C)CC3)cc2)cc1Nc1nccc(-c2cccnc2)n1` [IMATINIB], the result with K-562R [42] was Active. Moreover, in series [43], the Activity result is “Non-toxic”.

(Values after ChEMBL document CHEMBL6087448, “Eradication of Therapy-Resistant Cancer Stem Cells by Novel Telmisartan Derivatives” (J Med Chem, 2025).)
